Values of other authors as cited in US20250041332A1, “SYSTEMIC INJECTION OF SUPERHEATED PERFLUOROCARBON EMULSION TO IMPROVE VENTILATION AND REDUCE VENTILATOR-INDUCED LUNG INJURY” (THE BOARD OF REGENTS OF THE UNIVERSITY OF TEXAS SYSTEM, priority 2021, published 2025).
Read-outs that look alike come from different tables or passages of the source.

How the values were obtained:
[1] = intravenous

FC(F)(F)C(F)(F)C(F)(F)C(F)(F)C(F)(F)C(F)(F)C(F)(F)C(F)(F)Br [PFOB, perfluorooctyl bromide]
Time in which half the dose is recovered from the exhaled gas [1]: 3 to 12 days

FC(F)(F)C(F)(F)C(F)(F)C(F)(F)F [perfluorobutane]
Vapor pressure (at 25° C.): about 330.3 kPa | Vapor pressure (temperature not given): approximately 330 kPa

FC(F)(F)C(F)(F)C(F)(F)C(F)(F)C(F)(F)F [perfluoropentane]
Vapor pressure (at 25° C.): about 83.99 kPa

FC(F)(F)C(F)(F)C(F)(F)F [perfluoropropane]
Vapor pressure (at 21.1° C.): about 792 kPa
